Assay results taken from EP4737451A1 (Dong Wha Pharm. Co., Ltd., priority 2023, dated 2025).

Columns and labels:
[1] = target: T1, IRAK1 enzyme (Homo sapiens, UniProt P51617); assay: IRAK1 enzyme activity inhibition (ADP-Glo, Promega kit); format: biochemical; settings: for inhibition at 0.1 µM: test compound 0.1 uM
T1 construct: purchased Promega VA7477
Description: An experiment on IRAK1 enzyme activity inhibition of the compound of the present invention was conducted.
An IRAK1 enzyme kit (purchased from Promega, product number: VA7477) was used to dilute a mixed solution between 0.1 µg/µL of protein kinase B (AKT), which is an enzyme-reactive substrate, and 1.25 mM of ATP with a reaction buffer (40 mM Tris-HCl, pH 7.5; 20 mM MgCl2; 0.1 mg/mL BSA; 50 µM DTT) according to the instructions, so as to dispense 2 µL in a 384-well white plate, and then to add 1 µL of a test compound, which was gradient diluted starting from 1 mM, to a 384-well white plate. After that, an IRAK1 enzyme was diluted with a reaction buffer to a final concentration of 5 ng/µL, then 2 µL/well was dispensed into a 384-well white plate and reacted at 37°C for 60 minutes. After completion of a reaction, an ADP-GloTM enzyme test kit (purchased from Promega, product number: V9102) was used to add 5 µL of ADP-Glo reaction reagent and cause a reaction at 37°C for 40 minutes, and then 10 µL of enzyme chromogenic reagent was added again to measure a luminescence signal using equipment for measuring absorbance (THECAN, Microplate Reader). An activity inhibition rate was calculated from a measured value, and a 50% inhibition concentration (IC50 value) was analyzed through a non-linear regression analysis based on the % inhibition for each concentration of the test compound, and is shown in Table 3.

[2] = target: T2, IRAK4 enzyme (Homo sapiens, UniProt Q9NWZ3); assay: IRAK4 enzyme activity inhibition (ADP-Glo, Promega kit); format: biochemical
T2 construct: purchased Promega V2621
T2 sequence (Q9NWZ3 1-460): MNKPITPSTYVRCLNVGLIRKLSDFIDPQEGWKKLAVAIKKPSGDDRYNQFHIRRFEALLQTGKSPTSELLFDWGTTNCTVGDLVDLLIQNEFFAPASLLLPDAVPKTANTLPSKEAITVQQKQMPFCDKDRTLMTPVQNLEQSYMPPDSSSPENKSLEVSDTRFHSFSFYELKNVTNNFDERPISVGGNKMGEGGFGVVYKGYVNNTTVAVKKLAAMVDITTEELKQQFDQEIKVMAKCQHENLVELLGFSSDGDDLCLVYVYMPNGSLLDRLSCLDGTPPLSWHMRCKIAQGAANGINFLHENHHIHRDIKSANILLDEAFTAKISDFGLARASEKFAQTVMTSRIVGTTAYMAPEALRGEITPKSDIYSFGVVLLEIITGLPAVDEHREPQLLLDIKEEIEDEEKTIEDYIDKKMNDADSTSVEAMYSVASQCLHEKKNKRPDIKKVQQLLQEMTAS
Description: An experiment on IRAK4 enzyme activity inhibition of the compound of the present invention was conducted.
An IRAK4 enzyme kit (purchased from Promega, product number: V2621) was used to dilute a mixed solution between 0.1 µg/µL of myelin basic protein (MBP), which is an enzyme-reactive substrate, and 1.25 mM of ATP with a reaction buffer (40 mM Tris-HCl, pH 7.5; 20 mM MgCl2; 0.1 mg/mL BSA; 50 µM DTT) according to the instructions, so as to dispense 2 µL in a 384-well white plate, and then to add 1 µL of a test compound, which was gradient diluted starting from 1 mM, to a 384-well plate. After that, an IRAK4 enzyme was diluted with a reaction buffer to a final concentration of 5 ng/µL, then 2 µL/well was dispensed into a 384-well white plate and reacted at 37°C for 60 minutes. After completion of a reaction, an ADP-GloTM enzyme test kit (purchased from Promega, product number: V9102) was used to add 5 µL of ADP-Glo reaction reagent and cause a reaction at 37°C for 40 minutes, and then 10 µL of enzyme chromogenic reagent was added again to measure a luminescence signal using equipment for measuring absorbance (THECAN, Microplate Reader). An activity inhibition rate was calculated from a measured value, and a 50% inhibition concentration (IC50 value) was analyzed through a non-linear regression analysis based on the % inhibition for each concentration of the test compound, and is shown in Table 2.

T1 sequence (P51617 whole entry): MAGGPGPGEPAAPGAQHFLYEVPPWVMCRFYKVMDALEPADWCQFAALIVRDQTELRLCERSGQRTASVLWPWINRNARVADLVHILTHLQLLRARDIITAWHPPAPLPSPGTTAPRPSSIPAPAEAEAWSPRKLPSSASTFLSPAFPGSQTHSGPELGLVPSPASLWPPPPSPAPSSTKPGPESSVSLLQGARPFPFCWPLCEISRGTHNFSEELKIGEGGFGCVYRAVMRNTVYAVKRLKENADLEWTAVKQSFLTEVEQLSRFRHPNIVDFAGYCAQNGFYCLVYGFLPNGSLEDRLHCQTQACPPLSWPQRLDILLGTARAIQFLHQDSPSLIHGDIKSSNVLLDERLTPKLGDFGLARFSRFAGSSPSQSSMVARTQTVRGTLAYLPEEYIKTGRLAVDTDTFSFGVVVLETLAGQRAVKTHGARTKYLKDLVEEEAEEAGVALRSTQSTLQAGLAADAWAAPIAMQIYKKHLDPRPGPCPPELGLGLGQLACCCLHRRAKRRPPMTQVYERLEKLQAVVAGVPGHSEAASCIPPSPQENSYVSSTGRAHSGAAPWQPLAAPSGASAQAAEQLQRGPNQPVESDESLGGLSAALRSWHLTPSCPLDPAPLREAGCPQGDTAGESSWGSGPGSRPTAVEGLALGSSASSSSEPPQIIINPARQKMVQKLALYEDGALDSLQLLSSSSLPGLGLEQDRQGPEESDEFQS

Row | Compound | inhibition at 0.1 µM [1] [%] | inhibition at 1 µM ([1]; test compound 1 uM) [%] | inhibition at 0.1 µM ([2]; test compound 0.1 uM) [%] | IC50 [2] [nM] | inhibition at 1 µM ([2]; test compound 1 uM) [%] | IRAK1 %enzyme inhibition (1 uM) ([1]; test compound 1 uM) [%] | IRAK4 %enzyme inhibition (0.1 uM) ([2]; test compound 0.1 uM) [%] | IRAK4 %enzyme inhibition (1 uM) ([2]; test compound 1 uM) [%]
1 | CC(C)(O)CCn1cc2cc(NC(=O)c3cccc(S(N)(=O)=O)c3)c(-c3ccc(CN4CCOCC4)cc3)cc2n1 [Example 39, N-(2-(3-hydroxy-3-methylbutyl)-6-(4-(morpholinomethyl)phenyl)-2H-indazol-5-yl)-3-sulfamoylbenzamide] | 23 | 35.2 | 69.7 | – | – | – | – | –
2 | CC(C)(O)CCn1cc2cc(NC(=O)c3cccc([N+](=O)[O-])c3)c(-c3ccc(N4CCOCC4)cc3)cc2n1 [Example 37, N-(2-(3-hydroxy-3-methylbutyl)-6-(4-morpholinophenyl)-2H-indazol-5-yl)-3-nitrobenzamide] | 26.3 | 31 | 52.2 | – | – | – | – | –
3 | CC(C)(O)CCn1cc2cc(NC(=O)c3cccc(-c4cn[nH]c4)n3)c(N3CCOCC3)cc2n1 [Example 20, N-(2-(3-hydroxy-3-methylbutyl)-6-morpholino-2H-indazol-5-yl)-6-(1H-pyrazol-4-yl)picolinamide] | 16.5 | 57 | 89.6 | 15.5 | – | – | – | –
4 | CN(C)CCn1cc2cc(NC(=O)c3cccc(C(N)=O)c3)c(-c3ccsc3)cc2n1 [Example 1, N-(2-(2-(dimethylamino)ethyl)-6-(thiophen-3-yl)-2H-indazol-5-yl)isophthalamide] | 42.4 | – | 19.1 | – | – | – | – | –
5 | CC(C)(O)CCn1cc2cc(NC(=O)c3cccc(-c4ccsc4)n3)c(N3CCOCC3)cc2n1 [Example 36, N-(2-(3-hydroxy-3-methylbutyl)-6-morpholino-2H-indazol-5-yl)-6-(thiophen-3-yl)picolinamide] | 5.7 | 12.9 | 55.2 | – | – | – | – | –
6 | CC(C)(O)CCn1cc2cc(NC(=O)c3cccc(S(N)(=O)=O)c3)c(N3CCC(O)CC3)cc2n1 [Example 31, N-(2-(3-hydroxy-3-methylbutyl)-6-(4-hydroxypiperidin-1-yl)-2H-indazol-5-yl)-3-sulfamoylbenzamide] | 30.6 | 66.7 | 88 | 13.4 | – | – | – | –
7 | CC(C)(O)CCn1cc2cc(NC(=O)c3cccc([N+](=O)[O-])c3)cc(-c3ccoc3)c2n1 [Example 16, N-(7-(furan-3-yl)-2-(3-hydroxy-3-methylbutyl)-2H-indazol-5-yl)-3-nitrobenzamide] | – | 17.2 | 48.8 | – | 71 | – | – | –
8 | CNC(=O)CNC(=O)c1ccc(-c2cc3nn(CCC(C)(C)O)cc3cc2NC(=O)c2cccc([N+](=O)[O-])c2)cc1 [Example 41, N-(2-(3-hydroxy-3-methylbutyl)-6-(4-((2-(methylamino)-2-oxoethyl)carbamoyl)phenyl)-2H-indazol-5-yl)-3-nitrobenzamide] | 0.4 | – | 69 | – | – | – | – | –
9 | CC(C)(O)Cn1cc2cc(NC(=O)c3cccc([N+](=O)[O-])c3)c(N3CCSCC3)cc2n1 [Example 45, N-(2-(2-hydroxy-2-methylpropyl)-6-thiomorpholino-2H-indazol-5-yl)-3-nitrobenzamide] | – | 0 | 59.6 | – | 75 | – | – | –
10 | CC(C)(O)CCn1cc2cc(NC(=O)c3cc(F)cc([N+](=O)[O-])c3)c(N3CCOCC3)cc2n1 [Example 24, 3-fluoro-N-(2-(3-hydroxy-3-methylbutyl)-6-morpholino-2H-indazol-5-yl)-5-nitrobenzamide] | 26.9 | 45.5 | 83.9 | 13.1 | – | – | – | –
11 | O=C(Nc1cc2cn(CCN3CCOCC3)nc2cc1-c1ccc(F)cc1)c1cccc([N+](=O)[O-])c1 [Example 34, N-(6-(4-fluorophenyl)-2-(2-morpholinoethyl)-2H-indazol-5-yl)-3-nitrobenzamide] | 4.6 | 17.4 | 69.4 | – | 88.2 | – | – | –
12 | N-(1-(3-hydroxy-3-methylbutyl)-6-morpholino-1H-indazol-5-yl)-3-nitrobenzamide [Example 28] | – | – | – | – | – | 9.10 | 56.1 | 89.9
